{"source": "patent US6534090B2", "about": "“Oral osmotic controlled drug delivery system for a sparingly soluble drug” (Sun Pharmaceutical Advanced Research Centre Limited, priority 2001, dated 2003)", "key": {"[1]": {"conditions": "cited from earlier work"}, "[2]": {"assay": "Comparative experiments: anhydrous carbamazepine suspended in water or aqueous solution of a crystal habit modifier", "assay_type": "physicochemical"}, "[3]": {"conditions": "below 4 μg/ml ineffective, above 12 μg/ml side-effects likely; cited from earlier work"}}}
{"smiles": "NC(=O)N1c2ccccc2C=Cc2ccccc21", "note": "[carbamazepine, 5H-dibenz-[b,f]azepine-5-carboxamide]", "values": [{"measurement": "solubility in water", "setting": "[1]", "value": "sparingly soluble in water"}, {"measurement": "conversion of anhydrous carbamazepine microcrystals", "setting": "[2]; in the presence of hydroxypropyl methylcellulose", "value": "did not convert to the dihydrate crystals"}, {"measurement": "length of crystals formed from anhydrous carbamazepine", "setting": "[2]; in water, absence of a crystal habit modifier, long discrete needles that cluster", "value": "≤ 500", "unit": "μm"}, {"measurement": "therapeutic range (blood levels)", "setting": "[3]", "value": "4 to 12", "unit": "µg/mL"}]}
